# Results reported in patent publication US6335372B1, “Treatment of obsessive compulsive disorder” (Orion Corporation, priority 2000, dated 2002).
# Tested on: obsessive-compulsive symptoms
# Test: Treatment of two patients having obsessive-compulsive symptoms with deramciclane
# Format: in vivo
# Settings: one 15 mg tablet twice daily (30 mg/day), 8 week treatment period
# Description: The efficacy of deramciclane in the treatment of OCD, is illustrated with two patients having obsessive-compulsive symptoms. These patients received one 15 mg tablet of deramciclane twice daily (=30 mg/day) for an eight-week active treatment period.
compound,measurement,value
"CN(C)CCO[C@]1(c2ccccc2)C[C@H]2CC[C@]1(C)C2(C)C [deramciclane, (1R,2S,4R)-(−)-2-phenyl 2-(dimethylaminoethoxy)-1,7,7-trimethyl-bicyclo[2.2.1]heptane]",obsessive-compulsive symptoms as assessed by the responsible physician,reduced in a clinically significant way
